Patent US20240269350A1, “I[…] FOR TREATING CENTRAL NERVOUS SYSTEM DISORDERS” (priority 2021, published 2024)
Where two headings read alike, the source gives them in different places.

Experiments:
[1] = approved oral, patch or i.v. administration; cited from earlier work
[2] = Oral rivastigmine pharmacokinetics and estimated delivery to CSF (Exelon label); format: in vivo; details: for daily dose delivered to CSF: plasma volume 2750 mL, CSF volume 150 mL
Procedure: Drug coating and formulation development. The absolute bioavailability of oral rivastigmine is approximately 40%, and the AUC1-12h cerebral spinal fluid (CSF)/plasma ratio is about 40% (Novartis Exelon® Capsules and Oral Solution Prescribing Information). An estimated 0.87% of the rivastigmine oral dose is absorbed and distributed into the CSF. Thus, the daily CSF uptake of this drug is estimated to be between 26-105 μg. As a starting point for the formulation development, we will first target to formulate a matrix loaded with rivastigmine which will be released over 30 days in a near linear manner. Bilateral administration of the rivastigmine matrix would result in approximately 21-107 μg rivastigmine delivered to CSF/day, assuming a CSF bioavailability between 10-50%.
For oral administration, delivery, an absolute bioavailability of Rivastigmine is about 40% and a mean AUC (area under the curve) 1-12 hr CSF/Plasma is about 40% (Exelon Label). The daily doses delivered to CSF are 26 μg/day, 52 μg/day, 79 μg/day, and 105 μg/day for the oral doses, equating to 1.5 mg BID, 3 mg BID, 4.5 mg BID, and 6 mg BID, respectively. For this estimation, a plasma volume of 2750 mL and a CSF volume of 150 mL are used.

[3] = oral administration, cited from earlier work; for AUC1-12h cerebral spinal fluid (CSF)/plasma ratio: mean
[4] = tartrate salt form; cited from earlier work

| Structure (SMILES) | Side effects [1] | daily dose delivered to CSF ([2]; oral 1.5 mg BID) | daily dose delivered to CSF ([2]; oral 3 mg BID) | daily dose delivered to CSF ([2]; oral 4.5 mg BID) | daily dose delivered to CSF ([2]; oral 6 mg BID) | fraction of oral dose absorbed and distributed into the CSF ([2]; oral dose, estimated) | daily CSF uptake ([2]; oral dosing, estimated) | AUC1-12h cerebral spinal fluid (CSF)/plasma ratio [3] | AUC1-12h cerebral spinal fluid (CSF)/plasma ratio ([3]; listed as rivastigmine) | absolute bioavailability [3] | absolute bioavailability ([3]; listed as rivastigmine) | water solubility [4] |
| --- | --- | --- | --- | --- | --- | --- | --- | --- | --- | --- | --- | --- |
| CC12CC3CC(C)(C1)CC(N)(C3)C2 [Memantine] | Headache, constipation, |  |  |  |  |  |  |  |  |  |  |  |
| CCN(C)C(=O)Oc1cccc([C@H](C)N(C)C)c1 [Rivastigmine] |  | 26 µg/day | 52 µg/day | 79 µg/day | 105 µg/day | 0.87% | 26 to 105 µg | about 40% | approximately 40% | about 40% | approximately 40% | highly water-soluble |
